Measurements as given in paper PMC8840664, “Design, Synthesis, Spectroscopic Characterisation and In Vitro Cytostatic Evaluation of Novel Bis(coumarin-1,2,3-triazolyl)benzenes and Hybrid Coumarin-1,2,3-triazolyl-aryl Derivatives” (Molecules, 2022).

Tests used:
HCT116 (colon carcinoma) = assay: in vitro antiproliferative activity, MTT assay, HCT116; assay type: cell-based; conditions: Homo sapiens, HCT-116, concentration that causes 50% growth inhibition, 72 h
Protocol: (§1) The experiments were carried out on several human cell lines, as follows: HCT116 (colon carcinoma), H 460 (lung carcinoma) and MCF-7 (breast carcinoma), HeLa (cervical carcinoma), human T-lymphocyte cells (CEM) and HMEC-1 (dermal microvascular endothelial cell) according to the previously published experimental procedure. Briefly, the cells were grown in DMEM medium with the addition of 10% foetal bovine serum (FBS), 2 mM L-glutamine, 100 U/mL penicillin and 100 µg/mL streptomycin, and cultured as monolayers at 37 °C in a humidified atmosphere with 5% CO2. HCT116, H 460 and MCF-7 cells were seeded at 2 × 10^3 cells/well in a standard 96-well microtiter plates and left to attach for 24 h. Next day, test compound was added in five serial 10-fold dilutions. The cell growth rate was evaluated after 72 h of incubation, using MTT assay. Obtained results were expressed as IC50 value which stands for the concentration of the compound necessary for 50% of growth inhibition. The IC50 values were calculated from concentration-response curve using linear regression analysis by fitting the test concentrations that give percentage of growth (PG) values above and below the reference value (i.e., 50%). However, if for a given cell line all of the tested concentrations produce PGs exceeding the respective reference level of effect (e.g., PG value of 50), then the highest tested concentration is assigned as the default value, which is preceded by a “>” sign. Each test was performed in quadruplicate in at least two individual experiments.

[1] = system: HMEC-1 (dermal microvascular endothelial cell); assay: cell proliferation, Coulter counter, HMEC-1 (non-tumour); assay type: cell-based; conditions: Homo sapiens, HMEC-1, 72 h; non-tumour cell line; 3 days, cells counted in a Coulter counter
Protocol: as §1
(§2) HeLa and HMEC-1 cells were seeded in 48-well plates at 10,000 cells/well. After 24 h, different concentrations of the compounds were added. After 3 days of incubation, the cells were trypsinized and counted in a Coulter counter. Suspension cells (human T-cell leukaemia Cem cells) were seeded in 96-well plates at 60,000 cells/well in the presence of different concentrations of compounds, allowed to proliferate for 96 h, and counted in a Coulter counter. The 50% inhibitory concentration (IC50) was defined as the compound concentration required reducing cell proliferation by 50%.

[2] = system: HeLa (cervical carcinoma); assay: cell proliferation, Coulter counter, HeLa; assay type: cell-based; conditions: Homo sapiens, 72 h, 3 days, cells counted in a Coulter counter
Protocol: as §1, §2

[3] = system: human T-lymphocyte cells (CEM); assay: cell proliferation, Coulter counter, CEM; assay type: cell-based; conditions: 96 h, cells counted in a Coulter counter
Protocol: as §1, §2

H 460 (lung carcinoma) = assay: in vitro antiproliferative activity, MTT assay, H 460; assay type: cell-based; conditions: Homo sapiens, NCI-H460, concentration that causes 50% growth inhibition, 72 h
Protocol: as §1

MCF-7 (breast carcinoma) = assay: in vitro antiproliferative activity, MTT assay, MCF-7; assay type: cell-based, human; conditions: for IC50: Homo sapiens, MCF7, concentration that causes 50% growth inhibition, 72 h, MTT assay
Protocol: as §1

Row | Compound | IC50 (HCT116 (colon carcinoma)) [µM] | IC50 (H 460 (lung carcinoma)) [µM] | melting point [°C] | IC50 (MCF-7 (breast carcinoma)) [µM] | IC50 [1] [µM] | IC50 [2] [µM] | IC50 [3] [µM] | activity against MCF-7 cell line (in words) (MCF-7 (breast carcinoma))
1 | Cc1cc(=O)oc2cc(-n3cc(-c4ccccc4)nn3)ccc12 [Compound 2a, 4-Methyl-7-(4-phenyl-1H-1,2,3-triazol-1-yl)-2H-chromen-2-one] | ≥ 100 | ≥ 100 | 267 to 270 | 23 ± 9 | > 100 | > 100 | > 100 | 
2 | Cc1cc(=O)oc2cc(-n3cc(-c4ccc(N)cc4)nn3)ccc12 [Compound 2b, 7-[4-(4-Aminophenyl)-1H-1,2,3-triazol-1-yl]-4-methyl-2H-chromene-2-one] | 3 ± 2 | ≥ 100 | 269 to 273 | 0.6 ± 0.1 | > 100 | > 100 | > 100 | 
3 | Cc1ccc(-c2cn(-c3ccc4c(C)cc(=O)oc4c3)nn2)cc1 [Compound 2d, 4-Methyl-7-[4-(p-tolyl)-1H-1,2,3-triazol-1-yl]-2H-chromen-2-one] | 36 ± 3 | ≥ 100 | 269 to 272 | ≥ 100 |  |  |  | devoid of activity
4 | Cc1cc(=O)oc2cc(-n3cc(-c4ccc(Br)cc4)nn3)ccc12 [Compound 2e, 7-[4-(4-Bromophenyl)-1H-1,2,3-triazol-1-yl]-4-methyl-2H-chromen-2-one] | 27 ± 0.06 | 85 ± 13.5 | 280 to 285 | 32 ± 4 |  |  |  | 
5 | Cc1cc(=O)oc2cc(-n3cc(-c4ccc(C=O)cc4)nn3)ccc12 [Compound 2g, 4-[1-(4-Methyl-2-oxo-2H-chromen-7-yl]-1H-1,2,3-triazol-4-yl)benzaldehyde] | 77 ± 7 | ≥ 100 | 282 to 287 | ≥ 100 |  |  |  | devoid of activity
6 | Cc1cc(=O)oc2cc(-n3cc(-c4cccc(-c5cn(-c6ccc7c(C)cc(=O)oc7c6)nn5)c4)nn3)ccc12 [Compound 2h, 7,7′-(4,4′-(1,3-Phenylene)bis(1H-1,2,3-triazole-4,1-diyl))bis(4-methyl-2H-chromen-2-one)] | 9 ± 3 | 29 ± 3 |  | 0.3 ± 0.2 | > 100 | > 100 | > 100 | 
7 | Cc1cc(=O)oc2cc(-n3cc(-c4ccc(-c5cn(-c6ccc7c(C)cc(=O)oc7c6)nn5)cc4)nn3)ccc12 [Compound 2i, 7,7′-(4,4′-(1,4-Phenylene)bis(1H-1,2,3-triazole-4,1-diyl))bis(4-methyl-2H-chromen-2-one)] | 7 ± 3 | ≥ 100 | 255 to 261 | 1 ± 0.1 | > 100 | ≥ 100 | > 100 | 
8 | O=c1[nH]cc(F)c(=O)[nH]1 [Compound 5-FU, 5-fluorouracil, reference compound] | 4 ± 1 | 3 ± 0.3 |  | 14 ± 0.3 |  |  |  | 

Further lines, with some results ahead:

Row | IC50 (HCT116 (colon carcinoma)) [µM] | IC50 (H 460 (lung carcinoma)) [µM] | melting point [°C] | IC50 (MCF-7 (breast carcinoma)) [µM] | Compound | IC50 [1] [µM] | IC50 [2] [µM] | IC50 [3] [µM] | activity against MCF-7 cell line (in words) (MCF-7 (breast carcinoma))
9 | ≥ 100 | ≥ 100 | 275 to 279 | 21 ± 0.03 | Cc1cc(=O)oc2cc(-n3cc(-c4ccc(N(C)C)cc4)nn3)ccc12 [Compound 2c, 7-[4-(4-(Dimethylamino)phenyl]-1H-1,2,3-triazol-1-yl)-4-methyl-2H-chromen-2-one] | > 100 | 88 ± 8 | 58 ± 7 | 
10 | 22 ± 21 | ≥ 100 | 266 to 270 | ≥ 100 | COc1ccc(-c2cn(-c3ccc4c(C)cc(=O)oc4c3)nn2)cc1 [Compound 2f, 7-[4-(4-Methoxyphenyl)-1H-1,2,3-triazol-1-yl]-4-methyl-2H-chromen-2-one] |  |  |  | devoid of activity
11 | 31 ± 6 | 21 ± 7 | 186 to 192 | 3 ± 2 | Cc1cc(=O)oc2cc(-n3cc(CSc4nc5ccccc5s4)nn3)ccc12 [Compound 4a, 7-{{4-[(Benzo[d]thiazol-2-yl)thio]methyl}-1H-1,2,3-triazol-1-yl}-4-methyl-2H-chromen-2-one] | 66 ± 4 | 79 ± 36 | ≥ 100 | 
12 | 31 ± 5 | 23 ± 10 | 237 to 244 | 19 ± 3 | Cc1cc(=O)oc2cc(-n3cc(CSc4nc5ccccc5[nH]4)nn3)ccc12 [Compound 4b, 7-{4-{[(1H-Benzo[d]imidazol-2-yl)thio]methyl}-1H-1,2,3-triazol-1-yl}-4-methyl-2H-chromen-2-one] | 69 ± 8 | 25 | 74 ± 37 | 
13 | 5 ± 2 | 0.1 ± 0.04 |  | 1 ± 0.7 | COc1cc([C@@H]2c3cc4c(cc3[C@@H](O[C@@H]3O[C@@H]5CO[C@@H](C)O[C@H]5[C@H](O)[C@H]3O)[C@H]3COC(=O)[C@H]23)OCO4)cc(OC)c1O [etoposide, reference compound] |  |  |  | 
